According to ChEMBL document CHEMBL1201862, “PubChem BioAssay data set” (2004):
Where a name gives a salt, the structure may show the parent alone. The source made the active and inactive calls.

Experiments:
cells [1] = assay: cells
[2] = Luminescence-based cell-based high throughput dose response assay to identify activators of the DAF-12 from the parasite S. stercoralis (ssDAF-12).; type: functional
[3] = biological target: T1, Oxysterols receptor LXR-beta (Homo sapiens, UniProt P55055); type: functional, cell-based;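 further: Cell-based luminescence dose-response assay of agonist activity at LXR, run as a confirmatory counterscreen to a daf-12 agonist screen; agonist potency from rising luciferase signal of a Gal4-LXR reporter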
T1 sequence (P55055 whole entry): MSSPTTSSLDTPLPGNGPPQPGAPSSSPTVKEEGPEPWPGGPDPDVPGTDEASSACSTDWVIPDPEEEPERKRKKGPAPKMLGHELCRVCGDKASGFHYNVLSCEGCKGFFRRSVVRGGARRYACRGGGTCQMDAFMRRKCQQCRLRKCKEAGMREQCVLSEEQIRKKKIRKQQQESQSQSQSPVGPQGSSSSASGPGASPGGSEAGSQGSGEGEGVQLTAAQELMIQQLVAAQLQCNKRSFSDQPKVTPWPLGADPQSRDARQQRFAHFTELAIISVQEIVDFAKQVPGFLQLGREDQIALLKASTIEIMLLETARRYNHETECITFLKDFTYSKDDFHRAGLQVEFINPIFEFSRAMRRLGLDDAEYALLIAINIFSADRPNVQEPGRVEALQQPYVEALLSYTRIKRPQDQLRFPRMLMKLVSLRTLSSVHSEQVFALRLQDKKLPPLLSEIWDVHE

[4] = viability loss in HepG2 hepatoma cells – cell-based, ATP luminescence, cherry-pick, activator set 2, cytotoxicity control, dose response (AID 1053143); type: functional
[5] = biological target: T1, Oxysterols receptor LXR-beta; assay: LXR agonists, Gal4 luciferase reporter, dose response, counter-screen for ssDAF-12 agonist project, cell-based, luminescence, HEK293, S. stercoralis campaign (AID 720737); type: functional; conditions: read-out: IC50 (the source's name)
cells [6] = type: functional, cell-based; conditions: INS-1E
[7] = IC50 of insulin release inhibition, rat insulinoma INS-1E line, 5 mM glucose, cell-based (AID 1117331); type: functional
[8] = biological target: G-protein coupled receptor 183 (Homo sapiens, UniProt P32249); assay: SAR confirmation of small molecule antagonists of the EBI2 receptor via a luminescent beta-arrestin assa.; type: functional
G-protein coupled receptor 183, sequence (P32249 whole entry): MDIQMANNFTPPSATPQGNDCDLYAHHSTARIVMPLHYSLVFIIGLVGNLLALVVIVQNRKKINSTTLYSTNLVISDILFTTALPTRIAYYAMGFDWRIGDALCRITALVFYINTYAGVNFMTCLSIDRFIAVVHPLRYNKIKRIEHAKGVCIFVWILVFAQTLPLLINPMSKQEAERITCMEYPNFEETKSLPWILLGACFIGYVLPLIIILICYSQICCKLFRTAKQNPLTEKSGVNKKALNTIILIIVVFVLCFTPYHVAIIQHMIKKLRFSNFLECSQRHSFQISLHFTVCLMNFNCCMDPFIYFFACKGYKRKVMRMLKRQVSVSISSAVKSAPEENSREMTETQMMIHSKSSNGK

[9] = viability loss in Vero cells – cytotoxicity control for Vif-APOBEC3G degradation inhibitor project, dose response (AID 1117358); type: functional; conditions: Vero

Oc1ccccc1-c1cc(-c2ccccc2)[nH]n1
EC50 (cells [1]): > 67.4 µM (inactive)
IC50 [2]: > 67.4 µM (inactive)
EC50 [3]: > 67.4 µM (inactive)
AC50 [4]: 26 µM (active)
EC50 [5]: > 67.4 µM (inactive)

CN(C)C/C=C(/c1ccc(Br)cc1)c1cccnc1 [ZIMELDINE HYDROCHLORIDE]
IC50 (cells [6]): > 33.3 µM (inactive)
IC50 [7]: 8.36 µM (inactive)

Cc1ccccc1C(=O)N/N=C1/SCC(=O)N1Cc1ccccc1
IC50 [2]: > 67.5 µM (inactive)
EC50 [5]: > 67.5 µM (inactive)

O=C(/C=C/c1ccc(Br)cc1)N1CCN(Cc2cccc(F)c2)CC1
IC50 [8]: 0.00261 µM (active)

C=CCOc1ccc(Br)cc1/C=N/O
CC50 [9]: 2.72 µM (active)
